From ChEMBL document CHEMBL4041466, “Synthesis and evaluation of new benzodioxole-based dithiocarbamate derivatives as potential anticancer agents and hCA-I and hCA-II inhibitors” (Eur J Med Chem, 2017)
Values after ≈ are worked out from the molar mass of the structure shown.

Tests used:
C6 = test: Antiproliferative activity against rat C6 cells after 24 hrs by MTT assay; settings: C6, 24 h
A549 = test: Antiproliferative activity against human A549 cells after 24 hrs by MTT assay; settings: A549, 24 h

SMILES | IC50 (C6) [µg/mL] | IC50 (A549) [µg/mL]
O=C(CSC(=S)NN1CCCCC1)NCc1ccc2c(c1)OCO2 | 633 (≈ 1720 µM) | 875 (≈ 2380 µM)
CCN1CCN(NC(=S)SCC(=O)NCc2ccc3c(c2)OCO3)CC1 | 157 (≈ 395 µM) | 850 (≈ 2140 µM)
O=C(CSC(=S)NN1CCOCC1)NCc1ccc2c(c1)OCO2 | 207 (≈ 559 µM) | 700 (≈ 1890 µM)
CC1CCN(NC(=S)SCC(=O)NCc2ccc3c(c2)OCO3)CC1 | 567 (≈ 1490 µM) | 810 (≈ 2120 µM)
O=C(CSC(=S)NN1CCN(c2ccc([N+](=O)[O-])cc2)CC1)NCc1ccc2c(c1)OCO2 | 23.3 (≈ 47.7 µM) | > 1000
O=C(CSC(=S)NN1CCN(c2ccccc2)CC1)NCc1ccc2c(c1)OCO2 | 163 (≈ 367 µM) | > 1000
COc1ccc(N2CCN(NC(=S)SCC(=O)NCc3ccc4c(c3)OCO4)CC2)cc1 | 58.3 (≈ 123 µM) | > 1000
O=C(CSC(=S)NN1CCN(c2ncccn2)CC1)NCc1ccc2c(c1)OCO2 | 48.3 (≈ 108 µM) | 833 (≈ 1870 µM)
O=C(CSC(=S)NN1CCSCC1)NCc1ccc2c(c1)OCO2 | 220 (≈ 571 µM) | > 1000
CN1CCN(NC(=S)SCC(=O)NCc2ccc3c(c2)OCO3)CC1 | 167 (≈ 436 µM) | > 1000
